Source: patent publication US4284619A, “Esters useful as brain imaging agents” (Medi-Physics, Inc., priority 1978, dated 1981)

Columns and labels:
[1] = Biodistribution bioassay of I-123-labeled compounds in rats, 5 minutes after tail vein injection (blood, brain, heart, stomach activity); format: in vivo, Female Sprague-Dawley rats; conditions: rat; for Percent Dose/g. at 5 min. Blood / Percent Dose/g. at 5 min. Brain / Percent Dose/g. at 5 min. Heart: 0.05 to 1.0 mCi, I-123-labeled
Method: Bioassays were performed utilizing compounds from the foregoing examples labeled with I-123 in accordance with the method described in Example 11. Female Sprague-Dawley rats weighing approximately 150 g. were anesthetized with sodium pentobarbital and were injected in a tail vein with from 0.05 to 1.0 mCi (in a volume of 0.2 to 0.5 ml) of the I-123-labeled compound. Two specimens were utilized for each test.
The animals were sacrificed at 5 minutes post injection, the tails discarded and the amount of activity in various organs determined. Each organ was counted at a standardized geometry with a thallium iodide-activated sodium iodide crystal scintillation counter adjusted for the 159 keV emission of I-123. The organs were also weighed to one thousandth of a gram and the activity calculated as a percent of administered dose per gram organ weight.
The ratio of brain-to-blood activity was calculated as a percent of administered dose per gram. The important determinations are the amount of activity in the brain and the brain/blood ratio. The amount of activity in the stomach is related to loss of the I-123-label. For comparative purposes, I-123 antipyrine was utilized as a standard.

[2] = prior art brain imaging agent; cited from earlier work
[3] = i.v. tail vein, ratio of percent dose per gram
[4] = i.v. tail vein, stomach, related to loss of the I-123-label

## O=C(OCc1ccccc1)c1ccccc1[123I] [Example 7, benzyl o-iodobenzoate]
[1]; in vivo, iv
  Percent Dose in Stomach: 1.46 Percent Dose
  Ratio Brain/Blood: 0.25
  Ratio Heart/Blood: 0.65

## CCCCCCCCCCCCCCCCCCOC(=O)c1ccccc1[123I] [Example 10, octadecyl o-iodobenzoate]
[1]; in vivo, iv
  Percent Dose in Stomach: 0.92 Percent Dose
  Ratio Brain/Blood: 0.12
  Ratio Heart/Blood: 0.53

## O=C(Oc1ccccc1)c1ccccc1[123I] [Example 6, phenyl o-iodobenzoate]
[1]; in vivo, iv
  Percent Dose in Stomach: 0.92 Percent Dose
  Ratio Brain/Blood: 0.20
  Ratio Heart/Blood: 0.60

## glyceryl o-iodobenzoate [Example 5]
[1]; i.v. tail vein
  Percent Dose/g. at 5 min. Blood: 1.67 Percent Dose/g.
  Percent Dose/g. at 5 min. Brain: 0.73 Percent Dose/g.
  Percent Dose/g. at 5 min. Heart: 1.12 Percent Dose/g.
[1]; [3]
  Ratio Brain/Blood: 0.43
  Ratio Heart/Blood: 0.67
[1]; [4]
  Percent Dose in Stomach: 0.79 Percent Dose

## pyridoxyl o-iodobenzoate [Example 9]
[1]; i.v. tail vein
  Percent Dose/g. at 5 min. Blood: 1.61 Percent Dose/g.
  Percent Dose/g. at 5 min. Brain: 0.31 Percent Dose/g.
  Percent Dose/g. at 5 min. Heart: 1.02 Percent Dose/g.
[1]; [3]
  Ratio Brain/Blood: 0.19
  Ratio Heart/Blood: 0.63
[1]; [4]
  Percent Dose in Stomach: 0.93 Percent Dose

## CCOC(=O)c1ccccc1[123I] [Example 2, ethyl o-iodobenzoate]
[1]; in vivo, iv
  Percent Dose in Stomach: 0.81 Percent Dose
  Ratio Brain/Blood: 0.14
  Ratio Heart/Blood: 0.59

## O=C(Oc1cccc(O)c1O)c1ccccc1[123I] [Example 8, pyrogallyl o-iodobenzoate]
[1]; in vivo, iv
  Percent Dose in Stomach: 0.77 Percent Dose
  Ratio Brain/Blood: 0.08
  Ratio Heart/Blood: 0.51

## Cc1c([123I])c(=O)n(-c2ccccc2)n1C [^I 123-iodoantipyrine, 4-iodoantipyrine, reference compound]
[1]; in vivo, iv
  Percent Dose in Stomach: 2.23 Percent Dose
[2]
  loss of the iodine label in the brain: significant loss of the iodine label in the brain
